Experiment: xn = mol fraction of the nth substance listed
Conditions: 101 kPa

CC[N+](CC)(CC)CC.[Cl-] + CC(=O)CCC(=O)O
x1 = 0.25
Conditions	electrical conductivity [S/m]	viscosity [mPa·s]
293.15 K	0.075	130.1
298.15 K	0.105	–
303.15 K	0.138	69.8
308.15 K	0.172	–
313.15 K	0.215	39.1
318.15 K	0.265	–
323.15 K	0.318	27.1
328.15 K	0.373	–
333.15 K	0.453	18.71
338.15 K	0.524	–
343.15 K	0.587	–

CC(=O)CCC(=O)O + CCCC[N+](CCCC)(CCCC)CCCC.[Cl-]
x1 = 0.75
Conditions	electrical conductivity [S/m]	viscosity [mPa·s]
293.15 K	0.035	121.7
298.15 K	0.045	–
303.15 K	0.06	65.6
308.15 K	0.072	–
313.15 K	0.089	36.7
318.15 K	0.113	–
323.15 K	0.129	25.5
328.15 K	0.151	–
338.15 K	0.213	–
